Data taken from patent US11891386B2, “Indole compounds and their use” (ARIAGEN, INC., priority 2017, dated 2024).

Tests used:
Type in all cases: in vitro ADME
[1] = Hepatocyte intrinsic clearance assay, human hepatocytes; conditions: male, cryopreserved pooled human hepatocytes; Human Hepatocytes, 1 μM test compound
Excerpt: (§1) The liver is an important organ in the body for drug metabolism. This Example describes hepatocyte intrinsic clearance assays using both human and mouse hepatocytes to evaluate the metabolic stability of the indole compounds disclosed herein. The parameters measured include t1/2 (half-life), CLint (intrinsic clearance), and EH (hepatic extraction ratio).
(§2) Testosterone (Lot FE111011-01) was obtained from Cerilliant (Round Rock, TX). 7-hydroxycoumarin (Lot 11631ED) was obtained from Sigma Aldrich (St. Louis, MO). Cryopreserved human hepatocytes pooled from ten donor males (X008001), cryopreserved male IRC/CD-1 mouse hepatocytes (M005052), INVITROGRO HI Medium (incubation), and INVITROGRO HT Medium (thawing) were obtained from Bioreclamation IVT (Baltimore, MD). All solvents were obtained from commercial sources and used without further purification.
(§3) Each test compound was prepared as a 1 mM stock solution in DMSO. A 2 μM solution of test compound and positive controls were prepared in INVITROGRO HI Medium (incubation). These solutions were pre-warmed in a sterile incubator set to maintain 37° C., 5% CO2, and 98% humidity. Cryopreserved hepatocytes were prepared at a concentration of 2×10^6 living cells/mL in incubation media and pre-warmed in the incubator. The compound solutions and hepatocyte mixtures were then combined at a ratio of 1:1 (v:v). The final volume of the reaction mixture was 750 μL, containing 1 μM test compound (10 μM for 7-hydroxycoumarin) and […]. The reaction mixture was placed in the incubator on a plate shaker. After 0, 15, 30, 60, 90, and 120 minutes of incubation, 100 μL of reaction mixtures were removed from the incubation plate and mixed with 150 μL of ice-cold acetonitrile in a designated well of a 96-well crash plate. The 96-well crash plate was placed on ice for 15 min, and samples were centrifuged (3,600 RPM, 10 min, 4° C.) to precipitate protein. The supernatants were diluted 1:1 (v:v) with water containing 0.15 μM verapamil and/or 1 μM tolbutamide (internal standards for positive and negative modes, respectively) in a 96-well shallow injection plate. This plate was sealed for LC-MS analysis. All measurements were done in duplicate.
(§4) The residual compound remaining (% R) was determined from LC-MS peak areas by comparison to the zero time point. Metabolic half-life (t1/2) and intrinsic clearance (CLint) values were calculated from the slope of the plot of ln (% R) vs. time and the concentration of hepatocytes present in the incubation. Percent remaining at 60 minutes was calculated by plugging in the 60 minute value into the slope equation generated by the percent remaining time points.
(§5) In vivo hepatic clearance CLH was calculated using the well stirred liver model according to the following equation:
(§6) [formula] where QH is the total liver blood flow, fu is unbound fraction of the drug, and CL′int is defined as follows: CL′int=CLint×(10^6 cells/g of liver weight)×(g liver weight/kg of body weight). In the first approximation, used in this study, fu=1.
(§7) Hepatic extraction ratio EH was calculated using the following equation:
(§8) [formula] Corresponding physiological parameters used in calculations for all species are shown below in Table 5.

[2] = test system: human hepatocytes; test: as above; conditions: for CLint (μL/min/10^6 ells) / EH (%) hepatic extraction ratio: Human Hepatocytes; for CLint (μL/min/10^6 ells): 1 μM test compound; for EH (%) hepatic extraction ratio: well stirred liver model, fu=1; for clearance / metabolic profile, in words: human hepatocytes
Excerpt: as §1, §2, §3, §4, §5, §6, §7, §8

[3] = Hepatocyte intrinsic clearance assay, mouse hepatocytes; conditions: male, IRC/CD-1, cryopreserved mouse hepatocytes; Mouse Hepatocytes, 1 μM test compound
Excerpt: as §1, §2, §3, §4, §5, §6, §7, §8

[4] = test system: mouse hepatocytes; test: as above; conditions: for CLint (μL/min/10^6 ells) / EH (%) hepatic extraction ratio: Mouse Hepatocytes; for CLint (μL/min/10^6 ells): 1 μM test compound; for EH (%) hepatic extraction ratio: well stirred liver model, fu=1; for clearance / metabolic profile, in words: mouse hepatocytes
Excerpt: as §1, §2, §3, §4, §5, §6, §7, §8

Row | Compound | half-life at 1 μM [1] | CLint (μL/min/10^6 ells) [2] | EH (%) hepatic extraction ratio [2] | half-life at 1 μM [3] | CLint (μL/min/10^6 ells) [4] | EH (%) hepatic extraction ratio [4] | clearance / metabolic profile, in words [2] | clearance / metabolic profile, in words [4]
1 | NCc1nnc(-c2csc(C(=O)c3c[nH]c4c(F)cccc34)n2)o1 [ARI-145, (4-(5-(aminomethyl)-1,3,4-oxadiazol-2-yl)thiazol-2-yl)(7-fluoro-1H-indol-3-yl)methanone] | 2.83 h | 4.1 μL/min/10^6 ells | 33% | 2.27 h | 5.1 μL/min/10^6 ells | 23% |  | 
2 | Cc1nnc(-c2csc(C(=O)c3c[nH]c4ccccc34)n2)o1 [ARI-060, (1H-indol-3-yl)(4-(5-methyl-1,3,4-oxadiazol-2-yl)thiazol-2-yl)methanone] | 4.55 h | 2.5 μL/min/10^6 ells | 24% | 2.3 h | 5.0 μL/min/10^6 ells | 23% |  | 
3 | Cc1nc(-c2csc(C(=O)c3c[nH]c4ccccc34)n2)no1 [ARI-030, (1H-indol-3-yl)(4-(5-methyl-1,2,4-oxadiazol-3-yl)thiazol-2-yl)methanone] | 6.31 h | 1.8 μL/min/10^6 ells | 18% | 0.285 h | 40.5 μL/min/10^6 ells | 70% |  | 
4 | CCC(=O)c1csc(C(=O)c2c[nH]c3c(F)cccc23)n1 [ARI-140, 1-(2-(7-fluoro-1H-indole-3-carbonyl)thiazol-4-yl)propan-1-one] | 3.33 h | 3.5 μL/min/10^6 ells | 30% | 7.5 h | 1.5 μL/min/10^6 ells | 8.3% |  | 
5 | Nc1nnc(-c2csc(C(=O)c3c[nH]c4ccccc34)n2)o1 [ARI-083, (4-(5-amino-1,3,4-oxadiazol-2-yl)thiazol-2-yl)(1H-indol-3-yl)methanone] | 10.8 h | 1.1 μL/min/10^6 ells | 12% | 16.1 h | 0.7 μL/min/10^6 ells | 4% | lower clearance and hepatic extraction parameters than ARI-060 | lower clearance and hepatic extraction parameters than ARI-060
6 | CCC(=O)c1csc(C(=O)c2c[nH]c3cc(F)c(F)cc23)n1 [ARI-149, 1-(2-(5,6-difluoro-1H-indole-3-carbonyl)thiazol-4-yl)propan-1-one] | 2.2 h | 5.3 μL/min/10^6 ells | 39% | 3.97 h | 2.9 μL/min/10^6 ells | 15% |  | 
7 | CCC(=O)c1csc(C(=O)c2c[nH]c3cccc(F)c23)n1 [ARI-142, 1-(2-(4-fluoro-1H-indole-3-carbonyl)thiazol-4-yl)propan-1-one] | 1.43 h | 8.1 μL/min/10^6 ells | 50% | 1.1 h | 11 μL/min/10^6 ells | 38% |  | 
8 | O=C(c1nc(-c2nnco2)cs1)c1c[nH]c2ccccc12 [ARI-056, (4-(1,3,4-oxadiazol-2-yl)thiazol-2-yl)(1H-indol-3-yl)methanone] | 0.653 h | 17.7 μL/min/10^6 ells | 68% | 0.447 h | 25.8 μL/min/10^6 ells | 60% |  | 
9 | CNC(=O)c1csc(C(=O)c2c[nH]c3ccc(Cl)cc23)n1 [ARI-049, 2-(5-chloro-1H-indole-3-carbonyl)-N-methylthiazole-4-carboxamide] | 3.88 h | 3.0 μL/min/10^6 ells | 27% | 1.59 h | 7.3 μL/min/10^6 ells | 30% | lower clearance and EH value | lower clearance and EH value
